In one experiment the test system is protein kinases. Description: Kinase selectivity panel at 1 µM. The class given is biochemical. As to conditions: 1µM test compound.
The test system of experiment [1] is colorectal PDX tumor models. In words: Colorectal cancer PDX in vivo therapy. Also noted: species or system human. To be noted: six colorectal PDX models; p<0.0001. The source says:
To follow up our standard xenograft experiments, we next tested compound activity in human patient-derived tumor xenograft models (PDXs). Firstly, we determined if our compounds were active in in vitro soft agar clonogenic assays, using cells derived from 89 distinct PDX models from different tissue types. In this assay, colony growth was inhibited, but only by up to 50%, in one-third of PDX cell cultures treated with tool compound 2 (Figure 3A–B). Six of the more sensitive colorectal PDX tumor models were selected for in vivo monotherapy either with the lead compound 3 alone, or combined with a standard of care drug (irinotecan or oxaliplatin). […] Importantly, the combination of 3 with standard of care therapies was only of statistically significant benefit in one colorectal tumor model, CFX 1034 (p<0.001; Figure 3C and Figure 3—figure supplement 1).
PDX experiments were conducted at Oncotest (Germany).

In experiment [2] the test system is mouse KS483 osteoprogenitor cells. Description: Bone formation assay in KS483 osteoprogenitor cells (PINP, calcium). The experiment is classed as cell-based. As to conditions: 13 d. As to the method:
Bone formation assays were conducted by Pharmatest (Finland) in mouse KS483 osteoprogenitor cells cultured for 13 d with LGK974 or 3. The amount of PINP secreted into the culture medium, and calcium deposition, were measured by ELISA (Roche Diagnostics, UK).

The target of the next experiment is T1, CDK19 (Homo sapiens, UniProt Q9BWU1).
T1 construct: purchased Proteros Biostructures GmbH (Germany), assay service
T1 sequence (Q9BWU1 whole entry): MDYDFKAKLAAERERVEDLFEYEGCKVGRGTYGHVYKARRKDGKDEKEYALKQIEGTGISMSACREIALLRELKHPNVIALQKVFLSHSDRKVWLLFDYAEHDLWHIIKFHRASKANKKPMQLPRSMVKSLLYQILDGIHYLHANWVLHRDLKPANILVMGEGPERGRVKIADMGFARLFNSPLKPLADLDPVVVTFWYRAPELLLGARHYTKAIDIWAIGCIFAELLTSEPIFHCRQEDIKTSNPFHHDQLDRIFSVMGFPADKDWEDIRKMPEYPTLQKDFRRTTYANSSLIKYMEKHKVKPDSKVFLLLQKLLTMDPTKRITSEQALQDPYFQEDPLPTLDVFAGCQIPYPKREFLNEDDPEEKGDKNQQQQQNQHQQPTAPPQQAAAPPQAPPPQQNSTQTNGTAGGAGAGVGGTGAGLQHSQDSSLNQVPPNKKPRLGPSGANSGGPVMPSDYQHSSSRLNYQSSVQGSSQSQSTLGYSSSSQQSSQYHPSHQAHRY
T1 sequence (P24863 whole entry partner): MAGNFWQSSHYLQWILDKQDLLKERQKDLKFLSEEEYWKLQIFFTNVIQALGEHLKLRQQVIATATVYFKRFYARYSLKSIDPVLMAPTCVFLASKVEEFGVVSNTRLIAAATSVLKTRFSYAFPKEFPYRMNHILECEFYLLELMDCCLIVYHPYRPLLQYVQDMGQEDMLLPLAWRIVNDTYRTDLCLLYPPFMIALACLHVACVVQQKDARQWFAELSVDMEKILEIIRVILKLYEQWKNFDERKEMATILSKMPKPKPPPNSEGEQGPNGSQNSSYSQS
In words: CDK19 reporter displacement assay. The experiment is classed as binding.

The subject of the next experiment is HT29. Description: 14 d colony growth assay, HT29. The experiment is classed as cell-based, human. As to conditions: 350 nM, mean (range), n = 2.
A further experiment has as its system LS180. In words: 14 d colony growth assay, LS180. The class given is cell-based, human. As to conditions: 350 nM, mean (range), n = 2.
Another experiment concerns RKO. Description: 14 d colony growth assay, RKO. To be noted: 350 nM, mean (range), n = 2. The class given is cell-based, human.
Experiment [3] has as its system p-STAT1^SER727 in LS1034 colorectal cancer xenografts. In words: p-STAT1 SER727 level in LS1034 xenografts (pharmacodynamics). The class given is in vivo, human. As to conditions: 2 hr post-treatment. (In general: A xenograft is tissue or cells of one species grown in another, often human tumour cells in immunodeficient mice.)

Data on two molecules can be found in article PMC5224920, “Assessing the mechanism and therapeutic potential of modulators of the human Mediator complex-associated protein kinases” (eLife, 2016).

The term IC50 denotes the concentration that gives 50% inhibition. Higher therefore signals weaker potency.

As for `Cn1ncc2cc(-c3cnc(N)c(Cl)c3N3CCC4(CCNC4=O)CC3)ccc21` [CMPD 3], the “Off-target activities in protein kinase panel” value in the experiment on protein kinases was “No off-target activities were detected”. Besides, in experiment [1], the “Response of colorectal PDX tumor models to monotherapy” value is “Only two of these colorectal cancer PDX tumors models, CFX 883 and CFX 1753, responded”. In addition, in experiment [2], the Calcium deposition result is listed as “inhibited in a concentration-dependent manner”; the PINP secretion result is “stimulated PINP secretion at low concentrations and inhibited PINP secretion at higher concentrations”.

With `Cc1n[nH]c2ncc(C(=O)N3CCC[C@H]3c3ccc(Cl)cc3)cc12` [CMPD 4], on CDK19, the IC50 was determined as 3.8 ± 0.4 nM. Besides, the “14 d colony growth (relative to control)” value in the experiment with HT29 is listed as 0.43 (0.01); in the experiment with LS180 it was 0.13 (0.03); in the experiment on RKO, 0.98 (0.07). In addition, in experiment [3], the “Decrease of p-STAT1^SER727” value was 58%. Also, the “p-STAT1^SER727 value normalised to total STAT1 levels” value in experiment [3] (n = 4, mean ± s.e.m, control 1719 ± 174) was determined as 719 ± 46.
